# Data from patent US8163909B2, “Substituted hydroxyethyl amine compounds as beta-secretase modulators and methods of use” (Amgen Inc., priority 2007, dated 2012).
# Where two headings read alike, the source gives them in different places.
# Tests used:
# [1] = system: Aβ40 in conditioned medium of cells stably expressing Amyloid Precursor Protein (APP); experiment: In vitro BACE cell-based assay (Aβ40 in conditioned medium, sandwich ELISA); conditions: read-out: HEK cell assay;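 further: compounds added as a dilution series, secreted peptide quantified by europium time-resolved fluorescence readout, potency fitted from percent of control versus compound concentration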
# CYP2D6 = CYP2D6 (Homo sapiens, UniProt P10635); experiment: CYP2D6 inhibition assay (bufuralol, pooled human liver microsomes)
# [2] = Microsomal stability assay, rat liver microsomes; conditions: rat liver microsomal data;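 further: rat liver microsomes (0.25 mg/mL) with about 1 µM compound plus 1 mM NADPH, pH 7.4, 37 °C for 30 min, parent left measured by LC-MS/MS against 0 min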
# [3] = Microsomal stability assay, human liver microsomes; conditions: human liver microsomal data;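 further: pooled human liver microsomes at 0.25 mg/mL with 1 µM compound and NADPH at 37 °C, pH 7.4, for 30 min, unchanged parent quantified by LC-MS/MS against the 0 min sample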
# CYP3A4 (CYP3A) = CYP3A4 (CYP3A) (Homo sapiens, UniProt P08684); experiment: in vitro; conditions: microsomes, pH 7.4;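 further: inhibition of CYP3A-mediated 1-hydroxymidazolam formation after 10 min incubation with NADPH, quantified by HPLC MS relative to metabolite produced without test compound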
# [4] = molecular target: Beta Secretase enzyme (BACE) (Homo sapiens, UniProt P56817); experiment: In vitro enzymatic BACE FRET (fluorescence resonance energy transfer) assay; format: biochemical; conditions: read-out: BACE1 FRET assay;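 further: fluorescence read after 1 h with 50 nM quenched peptide substrate spanning the BACE cleavage site, in pH 4.2 acetate buffer containing 10% DMSO and nonionic detergent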
# [5] = Homo sapiens, HEK293, Table 2, HEK cells
# [6] = 2D6 IC50, CYP enzyme inhibition
# [7] = Homo sapiens, HEK293, HEK cells
# [8] = 2D6 IC50 (uM), CYP enzyme inhibition
# Chain of CYP2D6 (P10635 whole entry): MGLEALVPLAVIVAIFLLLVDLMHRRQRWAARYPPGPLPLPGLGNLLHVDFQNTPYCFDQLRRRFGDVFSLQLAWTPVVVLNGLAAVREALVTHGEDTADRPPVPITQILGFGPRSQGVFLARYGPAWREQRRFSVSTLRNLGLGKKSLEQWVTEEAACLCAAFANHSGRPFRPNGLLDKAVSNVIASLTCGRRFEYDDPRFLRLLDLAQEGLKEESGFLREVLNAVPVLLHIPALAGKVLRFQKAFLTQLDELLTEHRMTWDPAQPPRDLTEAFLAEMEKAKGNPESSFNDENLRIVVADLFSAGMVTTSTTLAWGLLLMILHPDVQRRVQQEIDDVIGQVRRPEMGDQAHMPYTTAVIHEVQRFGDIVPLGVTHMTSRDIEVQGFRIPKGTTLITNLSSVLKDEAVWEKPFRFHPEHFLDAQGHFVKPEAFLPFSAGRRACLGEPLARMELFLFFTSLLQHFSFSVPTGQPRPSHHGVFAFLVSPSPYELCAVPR
# Chain of CYP3A4 (CYP3A) (P08684 2-503): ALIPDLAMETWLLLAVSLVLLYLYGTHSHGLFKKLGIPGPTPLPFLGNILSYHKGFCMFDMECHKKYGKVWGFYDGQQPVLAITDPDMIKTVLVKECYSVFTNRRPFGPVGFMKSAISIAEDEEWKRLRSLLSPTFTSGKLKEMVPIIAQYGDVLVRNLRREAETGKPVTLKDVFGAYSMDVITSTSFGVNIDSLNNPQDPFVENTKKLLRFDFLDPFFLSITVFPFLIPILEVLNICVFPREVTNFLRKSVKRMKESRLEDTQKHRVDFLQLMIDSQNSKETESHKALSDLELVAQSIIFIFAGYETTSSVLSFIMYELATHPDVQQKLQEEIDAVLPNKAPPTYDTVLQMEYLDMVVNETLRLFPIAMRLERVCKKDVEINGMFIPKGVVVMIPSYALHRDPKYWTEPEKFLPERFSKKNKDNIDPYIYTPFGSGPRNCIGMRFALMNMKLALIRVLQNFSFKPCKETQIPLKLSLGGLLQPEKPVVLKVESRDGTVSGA
# Chain of Beta Secretase enzyme (BACE) (P56817 46-501): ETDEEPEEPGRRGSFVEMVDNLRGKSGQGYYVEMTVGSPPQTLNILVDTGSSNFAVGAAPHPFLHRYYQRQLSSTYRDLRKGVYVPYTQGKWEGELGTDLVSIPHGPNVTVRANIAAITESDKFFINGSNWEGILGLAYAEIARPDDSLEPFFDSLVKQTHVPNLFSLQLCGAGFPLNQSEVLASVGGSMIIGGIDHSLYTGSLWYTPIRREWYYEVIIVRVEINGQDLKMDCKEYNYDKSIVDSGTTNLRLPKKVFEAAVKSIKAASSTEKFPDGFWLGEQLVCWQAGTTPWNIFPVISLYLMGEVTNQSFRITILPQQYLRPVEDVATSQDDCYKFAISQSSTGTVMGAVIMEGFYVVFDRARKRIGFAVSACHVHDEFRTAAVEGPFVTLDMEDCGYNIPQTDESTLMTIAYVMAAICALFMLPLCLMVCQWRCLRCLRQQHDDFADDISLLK
SMILES,"IC50 [1, 5] [nM]",IC50 (CYP2D6; [6]) [µM],RLM [2] [µL/min/mg],HLM [3] [µL/min/mg],IC50 (CYP3A4 (CYP3A)) [nM],IC50 ([4]; Table 2) [nM],"IC50 [1, 7] [nM]",IC50 (CYP2D6; [8]) [µM],IC50 ([4]; BACE enzyme assay) [nM],IC50 ([1]; HEK cells) [nM]
CO[C@H](C)C(=O)N[C@@H](Cc1cc(F)cc(F)c1)[C@H](O)CN[C@H]1CC2(CCC2)Oc2c(-c3cnc[nH]3)cc(CC(C)C)cc21 [compound 476],5,12.3,408,329,600,28,–,–,–,–
CC(C)(C)Cc1cnc2c(c1)[C@@H](NC[C@@H](O)[C@H](Cc1ccc(F)cc1)NC(=O)C(C)(F)F)CC1(CCC1)O2 [compound 477],104,3.2,337,118,300,12,–,–,–,–
CNc1cc(CC(C)(C)C)cc2c1OC1(CCC1)C[C@@H]2NC[C@@H](O)[C@H](Cc1cc(F)cc(F)c1)NC(=O)COC [compound 479],17,6.4,329,167,1800,11,–,–,–,–
COCC(=O)N[C@@H](Cc1cc(F)cc(F)c1)[C@H](O)CN[C@H]1CC2(CCC2)Oc2c(-c3cnc[nH]3)cc(CC(C)C)cc21 [compound 480],6,10.1,405,272,500,23,–,–,–,–
CC(=O)N[C@@H](Cc1cc(F)cc(F)c1)[C@H](O)CN[C@H]1CC2(CCC2)Oc2c1cc(CC(C)(C)C)nc2-c1cncs1 [compound 481],123,7.9,177,155,200,4,–,–,–,–
CO[C@H](C)C(=O)N[C@@H](Cc1ccc(F)cc1)[C@H](O)CN[C@H]1CC2(CCC2)Oc2c1cc(CC(C)C)cc2-n1ccnc1 [compound 482],422,3.6,194,27,100,150,–,–,–,–
COCC(=O)N[C@@H](Cc1ccc2c(c1)OCO2)[C@H](O)CN[C@H]1CC2(CCC2)Oc2nc(F)c(CC(C)(C)C)cc21 [compound 485],378,1.7,106,43,100,120,–,–,–,–
COCC(=O)N[C@@H](Cc1cc(F)cc(F)c1)[C@H](O)CN[C@H]1CC2(CCC2)Oc2c(-c3cncs3)cc(CC(C)(C)C)cc21 [compound 486],33,12.8,380,408,200,4,–,–,–,–
COCC(=O)N[C@@H](Cc1cc(F)cc(F)c1)[C@H](O)CN[C@H]1CC2(CCC2)Oc2c(-c3ccccc3F)cc(CC(C)(C)C)cc21 [compound 487],–,–,387,394,1600,–,118,21.4,15,–
COCC(=O)N[C@@H](Cc1cc(F)cc(F)c1)[C@H](O)CN[C@H]1CC2(CCC2)Oc2c(-c3cccnc3)cc(CC(C)(C)C)cc21 [compound 489],–,–,775,399,400,–,20,3.9,7,–
COCC(=O)N[C@@H](Cc1cc(F)cc(F)c1)[C@H](O)CN[C@H]1CC2(CCC2)Oc2c(-c3cncs3)cc(CC(C)C)cc21 [compound 490],–,–,249,344,200,–,29,7.5,3,–
CO[C@H](C)C(=O)N[C@@H](Cc1cc(F)cc(F)c1)[C@H](O)CN[C@H]1CC2(CCC2)Oc2c(-c3cncs3)cc(CC(C)C)cc21 [compound 491],–,–,285,345,200,–,36,6.2,4,–
COCC(=O)N[C@@H](Cc1ccc(F)cc1)[C@H](O)CN[C@@H]1CC2(CCC2)Oc2c1cc(CC(C)(C)C)nc2C#N [compound 492],–,–,190,94,400,–,462,8.2,5040,–
COCC(=O)N[C@@H](Cc1ccc(F)cc1)[C@H](O)CN[C@H]1CC2(CCC2)Oc2c1cc(CC(C)(C)C)nc2C#N [compound 493],–,–,221,95,600,–,471,11.6,44,–
COCC(=O)N[C@@H](Cc1cc(F)cc(F)c1)[C@H](O)CN[C@H]1CC2(CCC2)Oc2c1cc(CC(C)(C)C)nc2-n1ccnc1 [compound 494],–,–,63,30,200,–,72,1.2,20,–
CO[C@H](C)C(=O)N[C@@H](Cc1cc(F)cc(F)c1)[C@H](O)CN[C@H]1CC2(CCC2)Oc2c1cc(CC(C)(C)C)nc2-n1ccnc1 [compound 495],–,–,62,41,100,–,80,2,20,–
COCC(=O)N[C@@H](Cc1ccc(F)cc1)[C@H](O)CN[C@H]1CC2(CCC2)Oc2ncc(CC(C)(C)C#N)cc21 [compound 496],–,–,139,89,4700,–,102,≥ 27,24,–
CC(=O)N[C@@H](Cc1ccc(F)cc1)[C@H](O)CN[C@H]1CC2(CCC2)Oc2c1cc(CC(C)(C)C)nc2NC1CCC1 [compound 497],–,–,172,157,3300,–,100,2.6,77,–
COCC(=O)N[C@@H](Cc1ccc2c(c1)OCO2)[C@H](O)CN[C@H]1CC2(CCC2)Oc2ccc(C[C@@H](C)F)cc21 [compound 498],–,–,206,119,500,–,–,0.7,268,377
CO[C@@H](C)C(=O)N[C@@H](Cc1ccc2c(c1)OCO2)[C@H](O)CN[C@H]1CC2(CCC2)Oc2ccc(C[C@@H](C)F)cc21 [compound 499],–,–,213,156,300,–,473,0.7,1360,–
CO[C@H](C)C(=O)N[C@@H](Cc1cccc(F)c1)[C@H](O)CN[C@@H]1CC2(CCC2)Oc2c1cc(CC(C)(C)C)nc2-n1ccnc1 [compound 501],–,–,175,86,100,–,> 10000,2.8,5300,–
COCC(=O)N[C@@H](Cc1cccc(F)c1)[C@H](O)CN[C@@H]1CC2(CCC2)Oc2c1cc(CC(C)(C)C)nc2-n1ccnc1 [compound 502],–,–,158,54,100,–,1850,0.8,2000,–
